# In ChEMBL document CHEMBL4819062, “Novel iodinated quinazolinones bearing sulfonamide as new scaffold targeting radiation induced oxidative stress” (Bioorg Med Chem Lett, 2021):
# Columns and labels:
# [1] = target: T1, Nuclear factor erythroid 2-related factor 2 (Mus musculus) (UniProt Q60795); test: Activation of Nrf2 in mouse Hepa1c1c7 cells assessed as increase in NQO1 activity at 0.2 uM; format: cell-based; conditions: filed as activator
# T1 sequence (whole entry): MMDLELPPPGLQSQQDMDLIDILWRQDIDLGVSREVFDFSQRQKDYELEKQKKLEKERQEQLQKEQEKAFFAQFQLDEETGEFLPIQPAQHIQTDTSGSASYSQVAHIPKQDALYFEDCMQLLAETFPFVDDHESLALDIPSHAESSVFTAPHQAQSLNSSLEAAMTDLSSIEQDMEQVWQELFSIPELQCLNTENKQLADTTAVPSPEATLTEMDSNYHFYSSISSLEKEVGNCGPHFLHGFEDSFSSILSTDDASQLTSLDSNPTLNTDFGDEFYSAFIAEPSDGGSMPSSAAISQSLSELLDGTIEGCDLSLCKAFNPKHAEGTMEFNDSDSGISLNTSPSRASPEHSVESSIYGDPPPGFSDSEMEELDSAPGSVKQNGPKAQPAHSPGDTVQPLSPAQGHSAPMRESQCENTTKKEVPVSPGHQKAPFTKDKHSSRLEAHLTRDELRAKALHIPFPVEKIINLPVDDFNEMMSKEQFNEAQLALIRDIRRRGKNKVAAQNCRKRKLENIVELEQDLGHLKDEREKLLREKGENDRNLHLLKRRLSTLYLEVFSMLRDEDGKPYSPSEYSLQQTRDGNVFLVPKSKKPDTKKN
# [2] = target: T1, Nuclear factor erythroid 2-related factor 2 (Mus musculus); test: Activation of Nrf2 in mouse Hepa1c1c7 cells assessed as increase in NQO1 activity at 0.5 uM; format: cell-based; conditions: filed as activator
# [3] = target: T1, Nuclear factor erythroid 2-related factor 2 (Mus musculus); test: Activation of Nrf2 in mouse Hepa1c1c7 cells assessed as increase in NQO1 activity at 3.75 uM; format: cell-based; conditions: filed as activator
# [4] = target: T1, Nuclear factor erythroid 2-related factor 2 (Mus musculus); test: Activation of Nrf2 in mouse Hepa1c1c7 cells assessed as increase in NQO1 activity at 7.5 uM; format: cell-based; conditions: filed as activator
# [5] = target: T1, Nuclear factor erythroid 2-related factor 2 (Mus musculus); test: Activation of Nrf2 in mouse Hepa1c1c7 cells assessed as increase in NQO1 activity at 1.9 uM; format: cell-based; conditions: filed as activator
# [6] = target: T1, Nuclear factor erythroid 2-related factor 2 (Mus musculus); test: Activation of Nrf2 in mouse Hepa1c1c7 cells assessed as increase in NQO1 activity at 30 uM; format: cell-based; conditions: filed as activator
# [7] = target: T1, Nuclear factor erythroid 2-related factor 2 (Mus musculus); test: Activation of Nrf2 in mouse Hepa1c1c7 cells assessed as increase in NQO1 activity at 0.9 uM; format: cell-based; conditions: filed as activator
# [8] = target: T1, Nuclear factor erythroid 2-related factor 2 (Mus musculus); test: Activation of Nrf2 in mouse Hepa1c1c7 cells assessed as increase in NQO1 activity at 15 uM; format: cell-based; conditions: filed as activator
# [9] = Antioxidant activity assessed as DPPH radical scavenging activity; format: functional
# [10] = target: T1, Nuclear factor erythroid 2-related factor 2 (Mus musculus); test: Activation of Nrf2 in mouse Hepa1c1c7 cells assessed as increase in NQO1 activity at 0.625 uM; format: cell-based; conditions: filed as activator
# [11] = target: T1, Nuclear factor erythroid 2-related factor 2 (Mus musculus); test: Activation of Nrf2 in mouse Hepa1c1c7 cells assessed as increase in NQO1 activity at 1.25 uM; format: cell-based; conditions: filed as activator
# [12] = target: T1, Nuclear factor erythroid 2-related factor 2 (Mus musculus); test: Activation of Nrf2 in mouse Hepa1c1c7 cells assessed as increase in NQO1 activity at 0.313 uM; format: cell-based; conditions: filed as activator
# [13] = target: T1, Nuclear factor erythroid 2-related factor 2 (Mus musculus); test: Activation of Nrf2 in mouse Hepa1c1c7 cells assessed as increase in NQO1 activity at 2.5 uM; format: cell-based; conditions: filed as activator
# [14] = target: T1, Nuclear factor erythroid 2-related factor 2 (Mus musculus); test: Activation of Nrf2 in mouse Hepa1c1c7 cells assessed as increase in NQO1 activity at 10 uM; format: cell-based; conditions: filed as activator
# [15] = target: T1, Nuclear factor erythroid 2-related factor 2 (Mus musculus); test: Activation of Nrf2 in mouse Hepa1c1c7 cells assessed as increase in NQO1 activity at 40 uM; format: cell-based; conditions: filed as activator
# [16] = target: T1, Nuclear factor erythroid 2-related factor 2 (Mus musculus); test: Activation of Nrf2 in mouse Hepa1c1c7 cells assessed as increase in NQO1 activity at 20 uM; format: cell-based; conditions: filed as activator
# [17] = target: T1, Nuclear factor erythroid 2-related factor 2 (Mus musculus); test: Activation of Nrf2 in mouse Hepa1c1c7 cells assessed as increase in NQO1 activity at 5 uM; format: cell-based; conditions: filed as activator
# [18] = target: T1, Nuclear factor erythroid 2-related factor 2 (Mus musculus); test: Activation of Nrf2 in mouse Hepa1c1c7 cells assessed as increase in NQO1 activity at 3.125 uM; format: cell-based; conditions: filed as activator
# [19] = target: T1, Nuclear factor erythroid 2-related factor 2 (Mus musculus); test: Activation of Nrf2 in mouse Hepa1c1c7 cells assessed as increase in NQO1 activity at 25 uM; format: cell-based; conditions: filed as activator
# [20] = target: T1, Nuclear factor erythroid 2-related factor 2 (Mus musculus); test: Activation of Nrf2 in mouse Hepa1c1c7 cells assessed as increase in NQO1 activity at 0.8 uM; format: cell-based; conditions: filed as activator
# [21] = target: T1, Nuclear factor erythroid 2-related factor 2 (Mus musculus); test: Activation of Nrf2 in mouse Hepa1c1c7 cells assessed as increase in NQO1 activity at 50 uM; format: cell-based; conditions: filed as activator
# [22] = target: T1, Nuclear factor erythroid 2-related factor 2 (Mus musculus); test: Activation of Nrf2 in mouse Hepa1c1c7 cells assessed as increase in NQO1 activity at 0.4 uM; format: cell-based; conditions: filed as activator
# [23] = target: T1, Nuclear factor erythroid 2-related factor 2 (Mus musculus); test: Activation of Nrf2 in mouse Hepa1c1c7 cells assessed as increase in NQO1 activity at 1.6 uM; format: cell-based; conditions: filed as activator
# [24] = target: T1, Nuclear factor erythroid 2-related factor 2 (Mus musculus); test: Activation of Nrf2 in mouse Hepa1c1c7 cells assessed as increase in NQO1 activity at 12.5 uM; format: cell-based; conditions: filed as activator
# [25] = target: T1, Nuclear factor erythroid 2-related factor 2 (Mus musculus); test: Activation of Nrf2 in mouse Hepa1c1c7 cells assessed as increase in NQO1 activity at 6.25 uM; format: cell-based; conditions: filed as activator
Activity [1],Activity [2],Activity [3],Activity [4],Activity [5],Activity [6],Activity [7],Activity [8],IC50 [9] [µM],Activity [10],Activity [11],Activity [12],Activity [13],Activity [17],Compound,further results
–,–,–,–,–,–,–,–,85,0.94,0.83,0.96,0.76,0.51,NS(=O)(=O)c1ccc(-n2c(SCC(=O)Nc3ccccn3)nc3c(I)cc(I)cc3c2=O)cc1,–
1,1.02,1.02,1,1.04,1.02,1.06,1,161,–,–,–,–,–,NS(=O)(=O)c1ccc(-n2c(SCC(=O)Nc3c(Cl)cc(Cl)cc3Cl)nc3c(I)cc(I)cc3c2=O)cc1,–
–,–,–,–,–,–,–,–,55.6,1.02,1.03,1.02,1.04,1.05,NS(=O)(=O)c1ccc(-n2c(SCC(=O)Nc3ccc(I)cc3)nc3c(I)cc(I)cc3c2=O)cc1,Activity [14]: 1.04; Activity [15]: 1.12; Activity [16]: 1.07
–,–,–,–,–,–,–,–,158,–,–,–,–,–,NS(=O)(=O)c1ccc(-n2c(SCC(=O)Nc3ccc(F)cc3)nc3c(I)cc(I)cc3c2=O)cc1,Activity [18]: 0.99; Activity [19]: 1.13; Activity [20]: 1; Activity [21]: 1.19; Activity [22]: 0.98; Activity [23]: 0.99; Activity [24]: 1.06; Activity [25]: 1

# Second part, the compound before the results:
Compound,Activity [1],Activity [2],Activity [3],Activity [4],Activity [5],Activity [6],Activity [7],Activity [8],IC50 [9] [µM],Activity [10],Activity [11],Activity [12],Activity [13],Activity [17],further results
NS(=O)(=O)c1ccc(-n2c(SCC(=O)Nc3cccnc3)nc3c(I)cc(I)cc3c2=O)cc1,1,0.99,1.03,1.07,0.99,1.35,1,1.19,165,–,–,–,–,–,–
NS(=O)(=O)c1ccc(-n2c(SCC(=O)Nc3ccc(Cl)cc3)nc3c(I)cc(I)cc3c2=O)cc1,–,–,–,–,–,–,–,–,56.5,1.04,1.03,1.06,1.04,1.19,Activity [14]: 1.26; Activity [15]: 1.26; Activity [16]: 1.26
NS(=O)(=O)c1ccc(-n2c(SCC(=O)Nc3cccc(F)c3)nc3c(I)cc(I)cc3c2=O)cc1,1.01,1.04,1.1,1.21,1.06,1.47,1.07,1.31,59.4,–,–,–,–,–,–
NS(=O)(=O)c1ccc(-n2c(SCC(=O)Nc3ccc(Cl)cn3)nc3c(I)cc(I)cc3c2=O)cc1,–,–,–,–,–,–,–,–,30.5,–,–,–,–,–,Activity [18]: 1.09; Activity [20]: 0.99; Activity [22]: 0.94; Activity [23]: 0.98; Activity [24]: 1.7; Activity [25]: 1.5
